Assay results reported in patent publication US8754056B2, “Enhancing vessel lesion homing and repair potential of stem cells” (University of Florida Research Foundation, Inc., priority 2008, dated 2014).
[PMO-N] = phosphorodiamidate morpholino subunit (N: the base)

Legend:
[1] = system: human peripheral blood-derived CD34+ cells; test: NO production by DAF-FM fluorescence imaging; format: cell-based; conditions: for NO-release by SDF-1 in anti-TGFβ-PMO treated cells with inhibitor / NO generation in response to SDF-1 after PMO treatment: diabetic CD34+ cells; for NO generation in response to SDF-1 after PMO treatment / NO-release in response to SDF-1 after PMO pre-treatment: PMO 40 μg/mL; for NO-release in response to SDF-1 after PMO pre-treatment: n=3
Protocol: Human CD34^+ EPCs were incubated overnight with either control-PMO or anti-TGF-β-PMO at a concentration of 40 μg/mL. NO production was quantified in human peripheral blood-derived CD34^+ cells using NO-sensitive cell-permeant fluorescent dye DAF-FM. CD34^+ EPCs were loaded with 20 μM DAF-FM diacetate (Invitrogen) in 500 μl, of DPBS (MediaTech. Inc.) with glucose (1 mg/mL) and L-arginine (1 mM). […] Pharmacological inhibitors were added 30 min before the addition of DAF-FM. […] Cells were washed (4×) and 75 μL of cell suspension was placed in the coverslip-bottomed dish for fluorescence imaging. Fluorescent images were obtained using a computer-controlled monochromator excitation light source (TILL Polychrome II, TILL-Photonics, Martinsried, Germany) and a cooled CCD camera with exposure control (SensiCam, Till-photonics). During excitation at 488 nm with 50 ms of exposure time, emission at 510 nm was collected by the camera at 2×2 binning and images were acquired by Till-Vision software (Till Photonics, Martinsried, Germany). Images were corrected for background and maximum fluorescence intensity in individual cells was quantified in terms of arbitrary fluorescence units using Till-Vision software. Changes in fluorescence with different treatments were expressed as percent change with respect to cells that were used as time/vehicle control i.e. cells received no treatments but loaded with DAF-FM. Up to 75 numbers of cells were imaged per sample/donor and ‘n’ denotes number of donors used.

CD34+ EPCs = test: Modified Boyden chamber migration to SDF-1 after PMO treatment; format: cell-based, human; conditions: SDF-1 100 nM
murine HSCs = test: CNV laser injury model, homing of adoptively transferred GFP+ murine HSCs; format: in vivo, mice; conditions: overnight pre-treatment of HSCs, vs control-PMO (p<0.05) or medium alone
CXCR4 = test: Real-time PCR of CXCR4 mRNA in CD34+ EPCs; format: cell-based, human; conditions: normalized to β-actin
Protocol: (§1) Total mRNA from CD34 cells was isolated by using the Total RNA Mini Kit (Bio-Rad, Hercules, Calif.). The mRNA was transcribed by using an iScript cDNA Synthesis Kit (BioRad), and real-time PCR was performed using primers for CXCR4, CXCR7, or beta actin as per manufacturer's instructions (Ambion, Austin, Tex.). Real-time PCR was performed on 7500 Fast Real-Time PCR system for 40 cycles and all reactions were performed in triplicate.

human CD34+ cells = test: Survival in the absence of growth factors and later proliferation of CD34+ cells; format: cell-based
Protocol: Two discrete cord blood stem cell populations, lin^−CD34^+CD38^+ (FIG. 5A) or lin^−CD34^+CD38^− (FIG. 5B), in addition to lin^−CD34^+ cells from peripheral blood and bone marrow (FIG. 6A) were either treated with PMO containing medium or not. After 5 days, all cells received growth factors (Tpo, SCF, IL-3, IL-6) to detect live, growth factor responsive cells and their proliferative potential after 14 days was determined. By day 14, cells exposed to 20-300 μg/mL of anti-TGF-β-PMO typically formed macro colonies (>100,000 cells) after the addition of growth factors (FIG. 5).
Human cord blood and bone marrow CD34^+ EPCs were purchased from AllCells (Emeryville, Calif.) as positively selected lin^−, magnetic bead-purified frozen cell populations that were >95% CD34^+ cells by FACS analysis. Cells were thawed in a 37° C. water bath, diluted in excess IMDM 10% FBS, pelleted by centrifugation (300×g for 10 min), washed by centrifugation one additional time and, finally, counted using a hemocytometer. Viability, as determined by trypan blue dye exclusion, was routinely >95% after thaw and washes.
Further purification was carried out prior to survival and proliferation studies. Cells were adjusted to 5×10^5/mL in phosphate-buffered saline (PBS) containing 2% (v/v) fetal bovine serum (FBS) and incubated with single murine antibody controls and murine anti-CD34-PE, anti-CD45-PE-Cy5 and anti-CD38-APC. Just prior to cell sorting, propidium iodide (2 μg/mL) was added to detect non-viable cells. CD34^+, CD45^mid cells (HSCs are CD45^mid expressing and can be clearly separated from contaminating lymphocytes, which are CD45^high expressing) and CD38^+/− cells were directly sorted into 96-well round bottom plates (10±2 cells/well) containing IMDM, 10% horse serum, 10% FBS, 100 units/mL of penicillin, 10 μg/mL streptomycin, 20 mM 1-glutamine and 1 μM hydrocortisone±PMOs. At day 5, a hematopoietic growth factor cocktail (Hgf-cocktail) consisting of 20 ng/mL thrombopoietin, 50 ng/mL stem cell factor, 50 ng/mL interleukin-3 and 20 ng/mL interleukin-6, all purchased from PeproTech, N.J., was added to the wells. Cells were followed by daily direct light microscopy (×200) to assess cell proliferation. Cells that proliferated in response to growth factors were scored as cells that survived after the 5-day period in the absence of growth factors. […]
CD34^+ EPCs were isolated from cord blood, human bone marrow and peripheral blood as described above and sorted 10 cells per well in a 96 well plate in either the presence or absence of growth factors and in presence or absence of anti-TGFβ-PMO. […] This incubation period was previously determined by measuring the uptake of fluorescein isothyocyanate (FITC)-labelled PMOs in HSCs.

Normal MPB CD34+CD45+ = test: Surface antigen expression after PMO treatment, normal cells; format: cell-based, human
human CD34+ EPCs = test: Retinal ischemia-reperfusion injury model, incorporation of injected human CD34+ EPCs; format: in vivo, mice; conditions: for repair of acellular capillaries: diabetic CD34+ cells
Protocol: Mice (n=20) were kept under inhalation anaesthesia (isoflurane vapor) during induction of ischemia. The anterior chamber of the eye was cannulated with a 30-gauge needle attached to an infusion line of sterile saline, and the eye was subjected to 2 h of hydrostatic pressure (80-90 mmHg, measured by TonoPen; Medtronic Solan, Jacksonville, Fla.). […] The contralateral eye served as a control.
Seven days after the insult, at which time retinal capillary damage was appreciable,^14,15 the animals were injected intravitreally with isolated human CD34^+ EPCs pre-treated with either […] or control-PMO. After 48 h the animals were euthanized, the eyes were enucleated and the neural retinas were isolated by dissection. The retinas were permeabilized as described above, and reacted with rhodamine-conjugated R. communis agglutinin I. To assess the location of the injected human CD34^+ EPCs, retinas were further incubated with mouse monoclonal anti-human nuclear antigen (Chemicon) followed by secondary staining with FITC-conjugated goat-anti-mouse IgG antibodies (Chemicon). Confocal images of six random fields were taken and fluorescence intensity in each 100 μm^2 was analysed using ImageJ software. Appropriate non-immune antibodies, as well as incubation without primary antibody, were used to determine background and non-specific antibody binding.

Diabetic PB CD34+CD45+ = test: Surface antigen expression after PMO treatment, diabetic cells; format: cell-based, human
CXCR7 = test: Real-time PCR of CXCR7 mRNA in CD34+ EPCs; format: cell-based, human; conditions: non-diabetic CD34+ cells, P<0.001
Protocol: as §1

[2] = non-diabetic (normal) CD34+ EPCs

Compound	CXCR4 mRNA expression (CXCR4; diabetic CD34+ cells)	CXCR4 mRNA expression (CXCR4; [2])	CD14 % of cells (Normal MPB CD34+CD45+)	CD38 % of cells (Normal MPB CD34+CD45+)	CD105 % of cells (Normal MPB CD34+CD45+)	CXCR4 % of cells (Normal MPB CD34+CD45+)	VEGFR-2 % of cells (Normal MPB CD34+CD45+)	repair of acellular capillaries (human CD34+ EPCs)	CD14 % of cells (Diabetic PB CD34+CD45+)	CD38 % of cells (Diabetic PB CD34+CD45+)	CD105 % of cells (Diabetic PB CD34+CD45+)	CXCR4 % of cells (Diabetic PB CD34+CD45+)	VEGFR-2 % of cells (Diabetic PB CD34+CD45+)	NO generation in response to SDF-1 after PMO treatment ([1]; n=4)	NO-release in response to SDF-1 after PMO pre-treatment ([1]; non-diabetic CD34+ cells)	other results
c1cc(CN2CCCNCCNCCCNCC2)ccc1CN1CCCNCCNCCCNCC1 [AMD3100]																NO-release by SDF-1 in anti-TGFβ-PMO treated cells with inhibitor ([1]; inhibitor 10 μM): 28±2%; NO release by SDF-1 after inhibitor pre-treatment ([1]; non-diabetic CD34+ cells, SDF-1 100 nM, inhibitor 10 μM): 3±2%
O=c1cc(N2CCOCC2)oc2c(-c3ccccc3)cccc12 [LY294002]																NO release by SDF-1 after inhibitor pre-treatment ([1]; non-diabetic CD34+ cells, SDF-1 100 nM, inhibitor 20 μM): 12±3%
SDF-1: the principal stem/progenitor cell homing factor, used as chemotaxis effector and NO release stimulus																increase in NO generation vs time-control ([1]; non-diabetic CD34+ cells, SDF-1 100 nM, n=4): 45±4%
anti-TGF-β-PMO: phosphorodiamidate morpholino antisense oligomer, 5′ GAG GGC GGC ATG III GAG GC 3′ (SEQ ID NO: 2), AVI BioPharma sequence ID#0-1-01067 (antisense GAGGGCGGCATGNNNGAGGC; all [PMO-N], the base at N not given here; further chemistry not fully specified)	significantly increased	down-regulation	73.3 % of cells	82.3 % of cells	62.9 % of cells	85.3 % of cells	56.5 % of cells	robust reparative response	62.4 % of cells	94.2 % of cells	51.7 % of cells	72.7 % of cells	62.4 % of cells	69±7%	54±4%	migration to SDF-1 vs control-PMO (CD34+ EPCs; diabetic CD34+ EPCs, P<0.05): enhanced migration; migration to SDF-1 vs control-PMO (CD34+ EPCs; non-diabetic CD34+ EPCs, P<0.01): enhanced migration; numbers of GFP+ HSCs recruited to the laser injury site (murine HSCs): substantial increase; cell survival (human CD34+ cells; 40 μg/mL, compared with other concentrations): greatest cell survival; proliferation vs control-PMO (human CD34+ cells; BM-derived cells): increased proliferation; macro colony size by day 14 after addition of growth factors (human CD34+ cells; cord blood cells, 20-300 μg/mL, growth factors added after 5 days): > 100,000 cells; proliferation vs control-PMO (human CD34+ cells; peripheral blood CD34+ cells from diabetics and age- and sex-matched controls): enhanced proliferation; increase in incorporation of cells to injured retinal capillaries vs control-PMO (human CD34+ EPCs; FITC immunoreactivity per 100 μm^2 area, P<0.001): 2.5 fold; homing to areas of ischemic injury (human CD34+ EPCs; pre-treated EPCs injected intravitreally, vs control-PMO): profound homing; CXCR7 mRNA expression (CXCR7): increased
control-PMO: control morpholino oligomer, 5′ CGTTCTGATAGCTGTACCTC 3′ (SEQ ID NO: 1), AVI BioPharma sequence ID#0-1-0-555 (antisense CGTTCTGATAGCTGTACCTC; all phosphorodiamidate morpholino (PMO)) [reference compound]	not changed	increased	69.3 % of cells	79.9 % of cells	71.0 % of cells	88.5 % of cells	62.9 % of cells	essentially no repair	59.3 % of cells	92.2 % of cells	58.8 % of cells	74.1 % of cells	59.3 % of cells	9.2%	60±5%	
pertussis toxin																NO-release by SDF-1 in anti-TGFβ-PMO treated cells with inhibitor ([1]; inhibitor 100 ng/mL): 16±3%; NO release by SDF-1 after inhibitor pre-treatment ([1]; non-diabetic CD34+ cells, SDF-1 100 nM, inhibitor 100 ng/ml): 20±9%
